According to ChEMBL document CHEMBL1143474, “Synthesis and pharmacological evaluation of Tic-hydantoin derivatives as selective sigma1 ligands. Part 1” (Bioorg Med Chem Lett, 2005):

Legend:
[1] = molecular target: Sigma 2 receptor; experiment: Inhibitory concentration against opioid receptor sigma 2 of rat cerebral cortex using [3H]DTG upon incubation for 120 minutes at 22 degree C; assay type: tissue-based
[2] = molecular target: Sigma non-opioid intracellular receptor 1 (Cavia porcellus) (UniProt Q60492); experiment: Inhibitory concentration against opioid receptor sigma 1 of guinea pig cerebral cortex using [3H](+)-pentazocine upon incubation for 150 minutes at 22 degree C
Sequence of Sigma non-opioid intracellular receptor 1 (Cavia porcellus) (Q60492 whole entry, looked up): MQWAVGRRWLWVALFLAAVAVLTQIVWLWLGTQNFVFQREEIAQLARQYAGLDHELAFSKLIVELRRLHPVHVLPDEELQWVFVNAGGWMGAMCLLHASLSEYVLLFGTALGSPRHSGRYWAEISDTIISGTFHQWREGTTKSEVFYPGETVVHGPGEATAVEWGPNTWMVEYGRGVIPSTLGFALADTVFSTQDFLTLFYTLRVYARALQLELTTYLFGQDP

SMILES | IC50 [1] | IC50 [2]
O=C1[C@@H]2Cc3ccccc3N2C(=O)N1CCCN1CCCCC1 | > 1000 nM | 
O=C1[C@@H]2Cc3ccccc3CN2C(=O)N1CCCN1CCCCC1 | > 1000 nM | 21.5 nM
O=C1[C@@H]2Cc3ccccc3CN2C(=S)N1CCN1CCCCC1 | 507 nM | 
O=C1[C@@H]2Cc3ccccc3CN2C(=O)N1CCN1CCCCC1 | > 1000 nM | 16 nM
O=C1[C@H]2Cc3ccccc3CN2C(=O)N1CCN1CCCCC1 | > 1000 nM | 
O=C1N(CCN2CCCCC2)C[C@@H]2Cc3ccccc3CN12 | > 1000 nM | 
c1ccc2c(c1)C[C@H]1CN(CCN3CCCCC3)CN1C2 | > 1000 nM | 
